Assay results reported in US20120028358A1, “METHOD FOR INCREASING RETROVIRAL INFECTIVITY” (priority 2010, published 2012).

Columns and labels:
rat PMVEC = assay: Gamma-retroviral infection efficiency of PMVEC (percent fluorescent cells by FACS); type: cell-based; settings: for Retroviral infectivity versus control: increasing concentrations, Org 34517 0.1-30 μmol/L
Description: Cell cultures: Phoenix Retroviral Expression System ecotropic and amphotropic packaging cells were purchased from Orbigen, Inc. (San Diego, Calif.). […] Rat pulmonary microvascular endothelial cells (PMVEC), were obtained from our cell culture core at the University of South Alabama (King J, et al. Structural and functional characteristics of lung macro and microvascular endothelial phenotypes. Microvascular Res. 2004, March, 67(2). 139-151). Human glioblastoma cells (U87MG), and human mammary carcinoma cells (T47D) were obtained from ATCC. All cells were cultured in DMEM, 10% FBS, 2 mmol L-Glutamine and used for experiments at passages 4-9. All cells were grown in humidified incubators at 37° C. in 5% CO2. Cells were harvested by 0.05% trypsin/0.53 mM EDTA digestion, washed, re-suspended in cultured medium and analyzed directly by FACScan in the University of South Alabama Flow Cytometry Core. For cell cycle analysis cellular DNA was stained with […] of propridium iodide for 20 minutes as described elsewhere (48) and then analyzed by FACScan.
Vectors and delivery systems: pBMN-GFP (Orbigen, Inc., San Diego, Calif.), a retroviral vector that expresses GFP driven by the MMLV's promoter in Phoenix and other cells was used. In some experiments Murine Stem Cell Virus (MSCV) expressing mCherry and the hybrid retroviral vector Friend Murine Embryonic-stem cell Virus (FMEV) [for Friend Mink Cell Focus-forming (FMCF)/Murine Embryonic Stem cell Virus (MESV)](31) expressing DsRed2 were used in addition to MMLV. Two lentiviral vectors pLemiR (Open Biosystems, Huntsville, Ala.) and pLVX-DsRed-Monomer-C1 (Clontech Laboratories, Inc., Mountain View, Calif.) harboring turboRFP and DsRed as reporters were also used for comparison to gamma-retroviruses. Packaging cells were transfected with retroviral vectors using FuGENE 6 reagent following the manufacturer's instructions. For virus propagation, packaging cells were cultured in growth medium for 12-18 hours. Virus was collected with cultured medium, filtered, supplemented with hexadimethrine bromide (polybrene) to a final concentration of 4 μg/ml and applied directly to target cells.
Gamma-retroviral backbones containing genes encoding fluorescent proteins as reporters were propagated in Phoenix ecotropic packaging cells. Viral-conditioned supernatant was collected and applied to target cells (rat pulmonary microvascular endothelial cells, PMVEC).

progesterone receptor = target: T1, progesterone receptor (Homo sapiens, UniProt P06401); settings: cited from earlier work
T1 sequence (P06401 1-933): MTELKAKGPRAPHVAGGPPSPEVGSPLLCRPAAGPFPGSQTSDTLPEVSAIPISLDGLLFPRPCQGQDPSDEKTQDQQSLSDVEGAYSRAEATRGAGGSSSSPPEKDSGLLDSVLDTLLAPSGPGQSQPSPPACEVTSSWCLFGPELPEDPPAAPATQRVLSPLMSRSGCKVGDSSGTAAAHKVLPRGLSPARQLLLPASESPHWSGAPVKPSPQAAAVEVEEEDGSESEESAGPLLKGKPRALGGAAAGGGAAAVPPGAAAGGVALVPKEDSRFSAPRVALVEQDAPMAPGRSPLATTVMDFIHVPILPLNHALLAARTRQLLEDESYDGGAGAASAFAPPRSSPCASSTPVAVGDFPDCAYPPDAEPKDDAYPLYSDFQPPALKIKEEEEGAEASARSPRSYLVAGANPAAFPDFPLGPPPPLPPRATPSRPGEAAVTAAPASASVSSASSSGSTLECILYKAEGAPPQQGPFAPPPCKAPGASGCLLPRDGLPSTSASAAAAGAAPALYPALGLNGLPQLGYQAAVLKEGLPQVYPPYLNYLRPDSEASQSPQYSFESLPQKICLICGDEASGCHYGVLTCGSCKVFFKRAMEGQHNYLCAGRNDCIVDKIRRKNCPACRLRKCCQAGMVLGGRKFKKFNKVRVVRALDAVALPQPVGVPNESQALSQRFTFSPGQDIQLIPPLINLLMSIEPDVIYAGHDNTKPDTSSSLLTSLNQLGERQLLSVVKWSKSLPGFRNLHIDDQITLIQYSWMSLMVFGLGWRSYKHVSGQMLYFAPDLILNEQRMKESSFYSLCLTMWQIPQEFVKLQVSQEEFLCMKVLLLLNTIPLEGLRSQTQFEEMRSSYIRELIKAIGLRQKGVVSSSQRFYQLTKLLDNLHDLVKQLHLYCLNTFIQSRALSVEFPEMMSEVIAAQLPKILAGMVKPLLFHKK

glucocorticoid receptor = target: T2, glucocorticoid receptor (Homo sapiens, UniProt P04150); settings: cited from earlier work
T2 sequence (P04150 1-777): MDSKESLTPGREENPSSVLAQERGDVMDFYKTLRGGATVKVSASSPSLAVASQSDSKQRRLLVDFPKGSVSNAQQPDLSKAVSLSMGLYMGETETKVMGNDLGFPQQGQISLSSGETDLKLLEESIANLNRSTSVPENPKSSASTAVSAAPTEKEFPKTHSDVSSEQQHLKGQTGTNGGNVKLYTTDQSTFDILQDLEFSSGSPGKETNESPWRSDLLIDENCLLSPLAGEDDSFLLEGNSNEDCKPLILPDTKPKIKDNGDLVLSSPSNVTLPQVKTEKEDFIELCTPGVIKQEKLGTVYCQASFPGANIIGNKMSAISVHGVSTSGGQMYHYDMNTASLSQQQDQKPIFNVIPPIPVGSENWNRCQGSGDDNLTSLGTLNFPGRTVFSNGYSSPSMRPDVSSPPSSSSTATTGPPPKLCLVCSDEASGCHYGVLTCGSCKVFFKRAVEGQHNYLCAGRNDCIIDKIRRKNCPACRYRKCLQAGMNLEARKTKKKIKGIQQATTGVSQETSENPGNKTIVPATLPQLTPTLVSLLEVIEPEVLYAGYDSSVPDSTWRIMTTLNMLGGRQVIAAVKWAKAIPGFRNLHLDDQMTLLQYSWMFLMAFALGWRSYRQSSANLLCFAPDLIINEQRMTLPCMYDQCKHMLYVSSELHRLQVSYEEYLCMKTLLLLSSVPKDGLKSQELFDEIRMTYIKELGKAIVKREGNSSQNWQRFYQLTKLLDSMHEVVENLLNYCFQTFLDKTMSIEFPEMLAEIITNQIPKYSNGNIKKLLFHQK

[1] = system: rat pulmonary microvascular endothelial cells (PMVEC); assay: Percent GFP-positive (infected) target cells after conditioned medium from Phoenix cells; type: cell-based; settings: conditioned medium from Phoenix cells grown with dexamethasone, plateau at 10 nmol
Phoenix cells and PMVEC = assay: Cell growth and survival of packaging and target cells

| Compound | Retroviral infectivity versus control (rat PMVEC) | IC50 (progesterone receptor) [nM] | Potency in increasing retroviral infectivity relative to mifepristone (rat PMVEC) | IC50 (glucocorticoid receptor) [nM] | Percentage of GFP-positive (infected) PMVEC [1] [%] | Cell growth (Phoenix cells and PMVEC; over 7 days, retrovirus producing or target cells (data not shown)) | Adverse effects on cell growth or survival (Phoenix cells and PMVEC; packaging or target cells) |
| --- | --- | --- | --- | --- | --- | --- | --- |
| C=C1OC(CC)=NC12CCC1C3CCC4=CC(=O)CCC4=C3C(c3ccc(C(C)=O)cc3)CC12C (centres unmarked) [7453-102, 11b-[4-(acetyl)phenyl)-4′,5′-dihydro-2′-ethyl-5′-methylenespiro[estra-4,9-dien-17b,4′-oxazole]-3-one] | no effect | 0.34 | – | – | – | – | – |
| CC#C[C@]1(O)CC[C@H]2[C@@H]3CCC4=CC(=O)CCC4=C3[C@@H](c3ccc4c(c3)OCO4)C[C@@]21C [Org 34517] | significantly increased | – | less potent than mifepristone | 17.9 | – | – | – |
| C[C@@H]1C[C@H]2[C@@H]3CCC4=CC(=O)C=C[C@]4(C)[C@@]3(F)[C@@H](O)C[C@]2(C)[C@@]1(O)C(=O)CO [dexamethasone, Dexamethasone] | – | – | – | – | 45 | no effect | did not cause any evident adverse effects |
